Source: US20190330224A1, “ACC INHIBITORS AND USES THEREOF” (Gilead Apollo, LLC, priority 2015, published 2019)
Values after ≈ are worked out from the molar mass of the structure shown.

Legend:
[1] = compound concentration 10 ppm, foliar spray, evaluated 7 days after inoculation
Human ACC2 = Human ACC2 (Homo sapiens, UniProt O00763); test: In vitro ACC2 inhibition assay (ADP-Glo), human ACC2; assay type: biochemical; settings: 5 nM ACC2, 20 μM ATP, 20 μM acetyl-CoA
C. albicans ATCC 90028 = test: Anti-Fungal Activity Assay (broth microtiter MIC), C. albicans; assay type: cell-based, Candida albicans; settings: Candida albicans, ATCC90028, 48 h, 3 replicates; MIC recorded at 48 h; read-out: MIC C. albicans ATCC 90028
How it was run: (§1)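 Susceptibility testing used direct colony suspensions in RPMI 1640+MOPS from Sabouraud dextrose agar grown at 35° C. Endpoints were visual MICs at 48 h under CLSI M27-A3 microtiter conditions, plus a 24 h reading for soraphen.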

C. krusei ATCC 6258 = test: Anti-Fungal Activity Assay (broth microtiter MIC), C. krusei; assay type: cell-based, Candida krusei; settings: Pichia kudriavzevii, ATCC6258, 48 h, 3 replicates; MIC recorded at 48 h; read-out: MIC C. krusei ATCC 6258
How it was run: as §1

[2] = system: C. parapsilosis ATCC 22019; test: Anti-Fungal Activity Assay (broth microtiter MIC), C. parapsilosis; assay type: cell-based, Candida parapsilosis; settings: Lodderomyces parapsilosis, ATCC22019, 48 h, 3 replicates; MIC recorded at 48 h; read-out: MIC C. parapsilosis ATCC 22019
How it was run: as §1

Botrtyis cinerea (Bc) = test: Growth inhibition assay of fungal pathogens, Bc; assay type: cell-based; settings: 48 hours; read-out: Concentration at 90% Inhibition, Bc
How it was run: (§2)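 Spores in 17% V8 liquid medium were exposed to compound at final 50, 10 and 2 ppm or 2, 0.4 and 0.08 ppm with 2% DMSO. After 48 h, OD600 (blank-subtracted) and visual ratings were compared with the 2% DMSO control to give percent growth inhibition.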

[3] = system: Collectotrichum graminicola (Cg); test: Growth inhibition assay of fungal pathogens, Cg; assay type: cell-based; settings: 48 hours; read-out: Concentration at 90% Inhibition, Cg
How it was run: as §2

Diplodia maydis (Dm) = test: Growth inhibition assay of fungal pathogens, Dm; assay type: cell-based; settings: Stenocarpella maydis; 48 hours; read-out: Concentration at 90% Inhibition, Dm
How it was run: as §2

[4] = system: Fusarium moniliforme (Fm); test: Growth inhibition assay of fungal pathogens, Fm; assay type: cell-based; settings: Fusarium verticillioides; 48 hours; read-out: Concentration at 90% Inhibition, Fm
How it was run: as §2

[5] = system: Fusarium virguliforme (Fv); test: Growth inhibition assay of fungal pathogens, Fv; assay type: cell-based; settings: 48 hours, read-out: Concentration at 90% Inhibition, Fv
How it was run: as §2

[6] = system: Phytophthora capsici (Pc); test: Growth inhibition assay of fungal pathogens, Pc; assay type: cell-based; settings: 48 hours, read-out: Concentration at 90% Inhibition, Pc
How it was run: as §2

Rhizoctonia solani (Rs) = test: Growth inhibition assay of fungal pathogens, Rs; assay type: cell-based; settings: 48 hours, read-out: Concentration at 90% Inhibition, Rs
Septoria tritici (St) = test: Growth inhibition assay of fungal pathogens, St; assay type: cell-based; settings: Zymoseptoria tritici; 48 hours; read-out: Concentration at 90% Inhibition, St
How it was run: as §2

[7] = system: Blumeria graminis f sp. hordei; test: Foliar protection test, barley powdery mildew control; assay type: in vivo, Blumeria graminis f sp. hordei on Hordeum vulgare cv. Perry; settings: 168 h, compound concentration 50 ppm, foliar spray, evaluated 7 days after inoculation, read-out: Barley Powdery Mildew Control at 50 ppm
Description: Compounds of the present invention were evaluated in a foliar protection test to determine the ability to control barley powdery mildew. Plants (Hordeum vulgare cv. Perry) were grown for 6 days in 2-inch square pots containing Metromix 200 medium amended with fertilizer. For propagation, plants were maintained in a growth chamber at conditions of 20 to 21° C., 16 hour light cycle, 400 uM of light, 70% humidity, and with sub-irrigation as needed. After inoculation with the pathogen of Blumeria graminis f sp. hordei, plants were kept at conditions of 20 to 22° C., 70% relative humidity, and 200 uM of light to facilitate infection and disease development. At 6 days after planting (1st true leaf fully expanded), the test compounds were dissolved in a solution of 5% acetone and 0.005% Tween 80 surfactant. An atomizer was used for applying the solution onto both sides of the leaves until thoroughly wetted. The amount of the compound applied to the leaves was typically 200, 100, 50, 10, or 2 ppm, but it may vary. At 24 hours after treatment, the plants were moved to a cooler chamber and inoculated by shaking well-colonized, untreated stock plants above the treated plants. This allowed producing a settling cloud of spores and resulting in uniform infection. Efficacy was evaluated in 7 days later by examining leaves for colonization and growth of mildew. Table 5 lists the results of barley powdery mildew control at a compound concentration of 50 ppm or 10 ppm. Compounds having an activity designated as “AA” provided a compound having >85% control of barley powdery mildew; compounds having an activity designated as “A” provided a compound having from 70% to 84% control of barley powdery mildew; compounds having an activity designated as “B” provided a compound having from 50 to 69% control of barley powdery mildew; compounds having an activity designated as “C” provided a compound having from 25 to 49% control of barley powdery mildew; and compounds having an activity designated as “D” provided a compound having <25% control of barley powdery mildew.

Fungal ACC2 = Fungal ACC2 (UniProt Q00955); settings: read-out: Fungal ACC2 (IC50, in vitro ACC2 inhibition)
Sequence of Fungal ACC2 (Q00955 whole entry): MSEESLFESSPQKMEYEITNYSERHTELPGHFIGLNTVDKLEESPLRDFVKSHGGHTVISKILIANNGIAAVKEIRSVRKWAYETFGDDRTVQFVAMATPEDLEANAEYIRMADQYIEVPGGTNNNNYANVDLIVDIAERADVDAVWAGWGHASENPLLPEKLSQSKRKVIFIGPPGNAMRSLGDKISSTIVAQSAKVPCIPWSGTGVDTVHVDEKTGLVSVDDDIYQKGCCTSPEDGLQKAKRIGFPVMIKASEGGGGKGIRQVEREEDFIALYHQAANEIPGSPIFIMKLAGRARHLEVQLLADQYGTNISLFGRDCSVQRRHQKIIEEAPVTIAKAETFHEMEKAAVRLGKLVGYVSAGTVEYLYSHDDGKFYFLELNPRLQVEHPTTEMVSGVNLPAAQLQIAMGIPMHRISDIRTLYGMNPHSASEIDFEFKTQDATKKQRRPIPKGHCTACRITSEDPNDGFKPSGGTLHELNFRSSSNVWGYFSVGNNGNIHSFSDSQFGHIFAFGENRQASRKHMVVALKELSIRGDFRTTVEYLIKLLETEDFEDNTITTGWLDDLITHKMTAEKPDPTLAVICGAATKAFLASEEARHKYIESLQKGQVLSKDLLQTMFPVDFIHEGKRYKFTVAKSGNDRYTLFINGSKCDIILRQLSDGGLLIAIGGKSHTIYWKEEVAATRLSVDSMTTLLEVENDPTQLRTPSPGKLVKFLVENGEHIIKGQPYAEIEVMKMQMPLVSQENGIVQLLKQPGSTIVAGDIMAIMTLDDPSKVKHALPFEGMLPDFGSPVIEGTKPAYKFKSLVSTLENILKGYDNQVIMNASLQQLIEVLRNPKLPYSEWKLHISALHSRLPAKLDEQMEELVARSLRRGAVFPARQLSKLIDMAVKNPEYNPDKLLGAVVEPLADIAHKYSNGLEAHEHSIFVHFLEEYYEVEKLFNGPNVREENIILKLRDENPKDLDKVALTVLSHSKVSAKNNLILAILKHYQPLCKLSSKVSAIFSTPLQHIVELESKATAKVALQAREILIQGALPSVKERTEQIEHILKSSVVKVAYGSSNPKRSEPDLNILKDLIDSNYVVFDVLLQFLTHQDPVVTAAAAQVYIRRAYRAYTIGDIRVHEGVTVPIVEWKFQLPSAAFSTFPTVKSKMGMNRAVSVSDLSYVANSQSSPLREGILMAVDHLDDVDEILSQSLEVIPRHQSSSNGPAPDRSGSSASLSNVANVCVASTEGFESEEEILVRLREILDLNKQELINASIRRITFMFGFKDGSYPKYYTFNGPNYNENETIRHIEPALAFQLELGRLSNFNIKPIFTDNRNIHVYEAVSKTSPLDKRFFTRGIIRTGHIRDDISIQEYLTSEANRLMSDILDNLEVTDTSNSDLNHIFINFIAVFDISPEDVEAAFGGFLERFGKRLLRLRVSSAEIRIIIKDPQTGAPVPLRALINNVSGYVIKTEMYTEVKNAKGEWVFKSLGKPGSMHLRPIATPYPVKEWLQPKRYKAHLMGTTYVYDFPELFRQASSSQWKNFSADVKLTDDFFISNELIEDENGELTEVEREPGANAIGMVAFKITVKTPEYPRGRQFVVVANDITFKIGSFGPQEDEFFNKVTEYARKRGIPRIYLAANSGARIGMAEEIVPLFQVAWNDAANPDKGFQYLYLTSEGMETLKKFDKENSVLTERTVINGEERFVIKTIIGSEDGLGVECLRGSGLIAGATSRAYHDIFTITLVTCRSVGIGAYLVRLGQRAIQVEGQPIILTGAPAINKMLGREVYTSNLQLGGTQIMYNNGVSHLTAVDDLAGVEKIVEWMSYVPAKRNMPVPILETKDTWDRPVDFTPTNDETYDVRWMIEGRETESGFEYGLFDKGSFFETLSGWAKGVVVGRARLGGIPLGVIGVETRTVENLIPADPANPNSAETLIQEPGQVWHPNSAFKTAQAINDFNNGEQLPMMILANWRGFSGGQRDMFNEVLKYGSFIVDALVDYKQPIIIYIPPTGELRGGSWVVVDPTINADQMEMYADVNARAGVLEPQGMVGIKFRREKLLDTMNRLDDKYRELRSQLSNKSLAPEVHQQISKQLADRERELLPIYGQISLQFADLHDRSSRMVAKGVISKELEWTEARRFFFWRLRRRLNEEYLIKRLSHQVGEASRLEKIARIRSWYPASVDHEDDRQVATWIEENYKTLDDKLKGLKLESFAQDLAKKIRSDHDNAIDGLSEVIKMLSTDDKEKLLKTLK

Sequence of Human ACC2 (O00763 whole entry): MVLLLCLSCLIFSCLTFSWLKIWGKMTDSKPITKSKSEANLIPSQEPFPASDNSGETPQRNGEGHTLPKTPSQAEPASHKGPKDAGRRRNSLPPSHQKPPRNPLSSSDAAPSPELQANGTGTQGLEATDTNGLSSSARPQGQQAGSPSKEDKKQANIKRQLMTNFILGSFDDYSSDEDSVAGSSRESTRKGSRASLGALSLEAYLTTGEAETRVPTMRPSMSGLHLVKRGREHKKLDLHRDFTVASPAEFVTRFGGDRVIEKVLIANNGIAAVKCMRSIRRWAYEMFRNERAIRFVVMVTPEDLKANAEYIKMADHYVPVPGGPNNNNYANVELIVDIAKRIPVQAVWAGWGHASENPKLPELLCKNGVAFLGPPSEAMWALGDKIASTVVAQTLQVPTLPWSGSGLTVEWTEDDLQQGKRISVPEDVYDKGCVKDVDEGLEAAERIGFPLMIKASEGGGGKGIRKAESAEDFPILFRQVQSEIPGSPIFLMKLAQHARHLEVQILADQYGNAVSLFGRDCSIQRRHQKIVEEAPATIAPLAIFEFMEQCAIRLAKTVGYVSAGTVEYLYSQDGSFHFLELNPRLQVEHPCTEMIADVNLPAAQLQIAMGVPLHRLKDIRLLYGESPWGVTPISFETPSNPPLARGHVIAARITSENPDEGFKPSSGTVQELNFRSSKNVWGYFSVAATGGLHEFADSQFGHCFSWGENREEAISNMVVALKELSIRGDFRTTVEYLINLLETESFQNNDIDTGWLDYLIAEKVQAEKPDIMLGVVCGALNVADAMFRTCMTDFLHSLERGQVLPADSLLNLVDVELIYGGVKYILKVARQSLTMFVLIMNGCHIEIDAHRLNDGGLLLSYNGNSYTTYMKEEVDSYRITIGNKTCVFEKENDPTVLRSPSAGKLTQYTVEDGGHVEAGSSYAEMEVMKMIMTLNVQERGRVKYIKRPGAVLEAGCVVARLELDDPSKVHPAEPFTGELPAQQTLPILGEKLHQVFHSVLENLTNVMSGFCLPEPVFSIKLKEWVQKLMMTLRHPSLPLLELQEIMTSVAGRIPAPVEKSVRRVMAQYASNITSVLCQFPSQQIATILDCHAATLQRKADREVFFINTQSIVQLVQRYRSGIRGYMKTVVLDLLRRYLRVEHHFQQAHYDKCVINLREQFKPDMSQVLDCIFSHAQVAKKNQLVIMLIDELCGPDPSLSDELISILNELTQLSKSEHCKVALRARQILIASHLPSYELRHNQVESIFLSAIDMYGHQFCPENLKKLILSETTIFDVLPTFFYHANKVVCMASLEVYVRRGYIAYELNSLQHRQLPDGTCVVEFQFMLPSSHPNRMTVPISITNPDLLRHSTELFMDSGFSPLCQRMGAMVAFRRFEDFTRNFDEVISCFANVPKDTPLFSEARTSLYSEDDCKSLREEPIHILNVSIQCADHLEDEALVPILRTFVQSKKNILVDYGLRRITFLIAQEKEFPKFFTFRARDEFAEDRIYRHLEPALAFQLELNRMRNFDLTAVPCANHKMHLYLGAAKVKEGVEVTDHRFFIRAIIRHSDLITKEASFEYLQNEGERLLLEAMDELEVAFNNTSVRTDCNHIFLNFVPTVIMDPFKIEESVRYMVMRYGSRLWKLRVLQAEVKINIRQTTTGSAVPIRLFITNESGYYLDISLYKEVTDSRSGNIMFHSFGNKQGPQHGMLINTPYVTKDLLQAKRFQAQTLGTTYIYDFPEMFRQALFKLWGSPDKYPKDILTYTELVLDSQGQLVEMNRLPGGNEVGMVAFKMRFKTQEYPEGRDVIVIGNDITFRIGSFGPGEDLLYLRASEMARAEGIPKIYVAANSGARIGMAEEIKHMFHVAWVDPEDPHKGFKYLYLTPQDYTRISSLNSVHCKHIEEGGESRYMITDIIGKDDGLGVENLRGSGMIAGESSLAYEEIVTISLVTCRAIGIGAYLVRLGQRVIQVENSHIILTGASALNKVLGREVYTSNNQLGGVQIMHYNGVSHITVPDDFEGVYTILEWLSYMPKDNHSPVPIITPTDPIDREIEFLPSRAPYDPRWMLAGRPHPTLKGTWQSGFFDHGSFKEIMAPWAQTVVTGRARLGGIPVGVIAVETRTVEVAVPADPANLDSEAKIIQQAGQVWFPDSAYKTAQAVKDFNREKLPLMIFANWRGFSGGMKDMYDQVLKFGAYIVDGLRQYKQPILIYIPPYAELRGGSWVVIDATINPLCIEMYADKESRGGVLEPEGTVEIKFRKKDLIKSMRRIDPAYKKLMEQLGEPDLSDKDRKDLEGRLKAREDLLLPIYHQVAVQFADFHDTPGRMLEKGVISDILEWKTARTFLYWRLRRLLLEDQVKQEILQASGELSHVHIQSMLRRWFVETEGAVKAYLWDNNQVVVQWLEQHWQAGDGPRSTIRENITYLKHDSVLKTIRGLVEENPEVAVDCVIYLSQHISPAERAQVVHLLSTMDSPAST

| SMILES | Barley Powdery Mildew Control at 10 ppm [1] | IC50 (Human ACC2) [nM] | MIC (C. albicans ATCC 90028) [µg/mL] | MIC (C. krusei ATCC 6258) [µg/mL] | MIC [2] [µg/mL] | IC90 (Botrtyis cinerea (Bc)) [µg/mL] | IC90 [3] [µg/mL] | IC90 (Diplodia maydis (Dm)) [µg/mL] | IC90 [4] [µg/mL] | IC90 [5] [µg/mL] | IC90 [6] [µg/mL] | IC90 (Rhizoctonia solani (Rs)) [µg/mL] | IC90 (Septoria tritici (St)) [µg/mL] | pest or weed control at 50 ppm [7] [%] | IC50 (Fungal ACC2) [nM] |
| --- | --- | --- | --- | --- | --- | --- | --- | --- | --- | --- | --- | --- | --- | --- | --- |
| COCCO[C@@H](Cn1c(=O)n([C@H]2CCN(C)C2=O)c(=O)c2c(C)c(-n3nccn3)sc21)c1cc(F)ccc1OC [Compound I-27, 1-((R)-2-(5-fluoro-2-methoxyphenyl)-2-(2-methoxy-ethoxy)ethyl)-5-methyl-3-((S)-1-methyl-2-oxopyrrolidin-3-yl)-6-(2H-1,2,3-triazol-2-yl)thieno[2,3-d]pyrimidine-2,4(1H,3H)-dione] | D (provided a compound having <25% control of barley powdery mildew) | 10 to 100 | 2.1 to 4 (≈ 3.67 to 6.99 µM) | 2.1 to 4 (≈ 3.67 to 6.99 µM) | 2.1 to 4 (≈ 3.67 to 6.99 µM) | 2 (≈ 3.49 µM) | > 50 | > 50 | 2 (≈ 3.49 µM) | 10 (≈ 17.5 µM) | > 50 | > 50 | > 50 | 50 to 69 | 2 to 10 |
| COCCO[C@@H](Cn1c(=O)n([C@@H]2CCN(C)C2=O)c(=O)c2c(C)c(-n3nccn3)sc21)c1cc(F)ccc1OC [Compound I-28, 1-((R)-2-(5-fluoro-2-methoxyphenyl)-2-(2-methoxy-ethoxy)ethyl)-5-methyl-3-((R)-1-methyl-2-oxopyrrolidin-3-yl)-6-(2H-1,2,3-triazol-2-yl)thieno[2,3-d]pyrimidine-2,4(1H, 3H)-dione] | A (provided a compound having from 70% to 84% control of barley powdery mildew) | 10 to 100 | 2.1 to 4 (≈ 3.67 to 6.99 µM) | 2.1 to 4 (≈ 3.67 to 6.99 µM) | 2.1 to 4 (≈ 3.67 to 6.99 µM) | 2 (≈ 3.49 µM) | > 50 | > 50 | 2 (≈ 3.49 µM) | > 50 | > 50 | 10 (≈ 17.5 µM) | > 50 | > 85 | 2 to 10 |
| COCCO[C@@H](Cn1c(=O)n([C@H]2CCCNC2=O)c(=O)c2c(C)c(-n3nccn3)sc21)c1cc(F)ccc1OC [Compound I-29, 1-((R)-2-(5-fluoro-2-methoxyphenyl)-2-(2-methoxy-ethoxy)ethyl)-5-methyl-3-((S)-2-oxopiperidin-3-yl)-6-(2H-1,2,3-triazol-2-yl)thieno[2,3-d]pyrimidine-2,4(1H,3H)-dione] | C (provided a compound having from 25 to 49% control of barley powdery mildew) | 10 to 100 | 2.1 to 4 (≈ 3.67 to 6.99 µM) | 2.1 to 4 (≈ 3.67 to 6.99 µM) | 2.1 to 4 (≈ 3.67 to 6.99 µM) | 10 (≈ 17.5 µM) | > 50 | > 50 | 10 (≈ 17.5 µM) | > 50 | > 50 | > 50 | > 50 | 70 to 84 | 0.7 to 2 |
| COCCO[C@@H](Cn1c(=O)n([C@@H]2CCCNC2=O)c(=O)c2c(C)c(-n3nccn3)sc21)c1cc(F)ccc1OC [Compound I-30, 1-((R)-2-(5-fluoro-2-methoxyphenyl)-2-(2-methoxy-ethoxy)ethyl)-5-methyl-3-((R)-2-oxopiperidin-3-yl)-6-(2H-1,2,3-triazol-2-yl)thieno[2,3-d]pyrimidine-2,4(1H,3H)-dione] | D (provided a compound having <25% control of barley powdery mildew) | 10 to 100 | 2.1 to 4 (≈ 3.67 to 6.99 µM) | 2.1 to 4 (≈ 3.67 to 6.99 µM) | 2.1 to 4 (≈ 3.67 to 6.99 µM) | 10 (≈ 17.5 µM) | > 50 | > 50 | > 50 | > 50 | > 50 | > 50 | > 50 | 50 to 69 | 0.7 to 2 |
| COCCO[C@@H](Cn1c(=O)n([C@H]2CCCN(C)C2=O)c(=O)c2c(C)c(-n3nccn3)sc21)c1cc(F)ccc1OC [Compound I-31, 1-((R)-2-(5-fluoro-2-methoxyphenyl)-2-(2-methoxy-ethoxy)ethyl)-5-methyl-3-((S)-1-methyl-2-oxopiperidin-3-yl)-6-(2H-1,2,3-triazol-2-yl)thieno[2,3-d]pyrimidine-2,4(1H,3H)-dione] | B (provided a compound having from 50 to 69% control of barley powdery mildew) | 10 to 100 | 2.1 to 4 (≈ 3.58 to 6.82 µM) | 2.1 to 4 (≈ 3.58 to 6.82 µM) | 2.1 to 4 (≈ 3.58 to 6.82 µM) | 10 (≈ 17 µM) | > 50 | > 50 | 2 (≈ 3.41 µM) | 2 (≈ 3.41 µM) | > 50 | > 50 | > 50 | 70 to 84 | 0.7 to 2 |
| COCCO[C@@H](Cn1c(=O)n([C@H]2CCNC2=O)c(=O)c2c(C)c(-n3cccn3)sc21)c1cc(F)ccc1OC [Compound I-41, 1-((R)-2-(5-fluoro-2-methoxyphenyl)-2-(2-methoxy-ethoxy)ethyl)-5-methyl-3-((S)-2-oxopyrrolidin-3-yl)-6-(I H-pyrazol-1-yl)thieno[2,3-d]pyrimidine-2,4(1H,3H)-dione] | D (provided a compound having <25% control of barley powdery mildew) | – | 2.1 to 4 (≈ 3.77 to 7.17 µM) | 2.1 to 4 (≈ 3.77 to 7.17 µM) | 2.1 to 4 (≈ 3.77 to 7.17 µM) | > 50 | > 50 | > 50 | > 50 | > 50 | > 50 | > 50 | > 50 | 25 to 49 | 10 to 100 |
| COCCO[C@@H](Cn1c(=O)n([C@H]2CCN(C)C2=O)c(=O)c2c(C)c(-n3cccn3)sc21)c1cc(F)ccc1OC [Compound I-43, 1-((R)-2-(5-fluoro-2-methoxyphenyl)-2-(2-methoxy-ethoxy)ethyl)-5-methyl-3-((S)-1-methyl-2-oxopyrrolidin-3-yl)-6-(1H-pyrazol-1-yl)thieno[2,3-d]pyrimidine-2,4(1H,3H)-dione] | D (provided a compound having <25% control of barley powdery mildew) | – | 2.1 to 4 (≈ 3.67 to 7 µM) | 2.1 to 4 (≈ 3.67 to 7 µM) | 2.1 to 4 (≈ 3.67 to 7 µM) | > 50 | > 50 | > 50 | > 50 | > 50 | > 50 | > 50 | > 50 | 70 to 84 | 10 to 100 |
